Laboratory results as given in ChEMBL document CHEMBL3044747, “The antimycobacterial MICs, SARs, and QSARs of some ethnobotanically selected phytocompounds” (2013).
≈ marks a conversion by molar mass, not a printed value.

Tests used:
Type in all cases: functional
Settings in all cases: 672 h
[1] = system: Mycobacterium tuberculosis; test: Antimycobacterial activity against MDR Mycobacterium tuberculosis grown in MGIT liquid medium assessed as growth inhibition measured after 4 weeks by BACTEC method
[2] = system: Mycobacterium tuberculosis; test: Antimycobacterial activity against Mycobacterium tuberculosis H37Rv grown on Lowenstein-Jensen solid medium assessed as growth inhibition incubated with compound dissolved in DMSO measured after 4 weeks
[3] = system: Mycobacterium tuberculosis; test: Antimycobacterial activity against Mycobacterium tuberculosis H37Rv grown in MGIT liquid medium assessed as growth inhibition measured after 4 weeks by BACTEC method
[4] = system: Mycobacterium tuberculosis; test: Antimycobacterial activity against Mycobacterium tuberculosis H37Rv grown on Lowenstein-Jensen solid medium assessed as growth inhibition incubated with compound dissolved in water measured after 4 weeks
[5] = system: Mycobacterium tuberculosis; test: Antimycobacterial activity against Mycobacterium tuberculosis H37Rv grown on Lowenstein-Jensen solid medium assessed as growth inhibition incubated with compound dissolved in ethanol/methanol measured after 4 weeks
[6] = system: Mycobacterium tuberculosis; test: Antimycobacterial activity against Mycobacterium tuberculosis H37Rv grown on Lowenstein-Jensen solid medium assessed as growth inhibition measured after 4 weeks

| SMILES | MIC [1] [µg/mL] | MIC [2] [µg/mL] | MIC [3] [µg/mL] | MIC [4] [µg/mL] | MIC [5] [µg/mL] | MIC [6] [µg/mL] |
| --- | --- | --- | --- | --- | --- | --- |
| CCC1=C(O)C(=O)C=C(O)C1=O | 120 (≈ 714 µM) | 70 (≈ 416 µM) | 109 (≈ 648 µM) | 62.3 (≈ 371 µM) |  |  |
| CC(C)CCc1cc2c(cc1O)OCC1c3cc(O)cc(CCC(C)C)c3OC21 (stereo not drawn) |  | 74.3 (≈ 187 µM) |  | 81.7 (≈ 206 µM) |  |  |
| C[C@@H]1CCC2(CO)C(C(=O)O)=CCCC2[C@@]1(C)CCc1ccoc1 (stereo partly drawn) |  | 37.4 (≈ 113 µM) |  | 36.7 (≈ 110 µM) | 31 (≈ 93.2 µM) |  |
| C=C1CC23CCC4[C@](O)(CO)C[C@@H](O)C[C@]4(C)C2CCC1C3 (stereo partly drawn) |  | 37.6 (≈ 123 µM) |  | 66.8 (≈ 218 µM) | 39.7 (≈ 130 µM) |  |
| C[C@]12CC(=O)CC(CO)(CO)C1CC[C@@]13CC4[C@@H](CC12)[C@@]4(C)C3 (stereo partly drawn) |  | 42.9 (≈ 135 µM) |  | 23.3 (≈ 73.2 µM) | 42.3 (≈ 133 µM) |  |
| COc1ccc2c(c1OC)C=NC1C2CCC2CC3OCOC3CC21.Cl (stereo not drawn) |  | 31.3 |  | 50.3 | 16 |  |
| O=C1CCc2nccc3c4ccccc4n1c23 |  | 42 (≈ 189 µM) |  | 49.3 (≈ 222 µM) | 30 (≈ 135 µM) |  |
| c1c2c(cc3c1C1CCN4CCC[C@@]56CCN3[C@@]1(CC5)C46)OCO2 (stereo partly drawn) |  | 36.2 (≈ 112 µM) |  | 38.7 (≈ 119 µM) |  |  |
| CCC1=C(O)C(=O)C(CC)=C(O)C1=O | 55 (≈ 280 µM) |  | 50 (≈ 255 µM) |  |  |  |
| CCCC1=C(O)C(=O)C=C(O)C1=O | 115 (≈ 631 µM) |  | 85 (≈ 467 µM) |  |  |  |
| CCCCCC1=C(O)C(=O)C=C(O)C1=O | 110 (≈ 523 µM) |  | 50 (≈ 238 µM) |  |  |  |
| CCCCCCCC1=C(O)C(=O)C=C(O)C1=O | 106 (≈ 445 µM) |  | 45 (≈ 189 µM) |  |  |  |
| CCCCCCCCCC1=C(O)C(=O)C=C(O)C1=O | 60 (≈ 225 µM) |  | 7.5 (≈ 28.2 µM) |  |  |  |
| CCCC/C=C/CCCCCCCCCCCCCc1c(O)c(OC(C)=O)c(C)c(OC(C)=O)c1OC(C)=O | 40 (≈ 73.2 µM) |  | 10 (≈ 18.3 µM) |  |  |  |
| COc1cc(O)c(C/C=C/c2ccccc2)c(OC)c1 |  | 58.4 (≈ 216 µM) |  | 37.9 (≈ 140 µM) |  |  |
| COc1cc(O)cc(O)c1C/C=C/c1ccccc1 |  | 49.7 (≈ 194 µM) |  | 53.7 (≈ 210 µM) |  |  |
| COc1cc(O)c(C/C=C/c2ccccc2)c(O)c1OC |  | 41 (≈ 143 µM) |  | 48.3 (≈ 169 µM) |  |  |
| COc1cc(O)c(CCCc2ccccc2)c(O)c1OC |  | 34.3 (≈ 119 µM) |  | 49.7 (≈ 172 µM) |  |  |
| COc1ccc(C2Oc3cc(O)c(OC)c(O)c3C(=O)C2OC)cc1 (stereo not drawn) |  | 53 (≈ 153 µM) |  | 59.3 (≈ 171 µM) |  |  |
| COc1cc(-c2cc(=O)c3c(O)cc(O)cc3o2)c(OC)c(OC)c1OC |  | 15 (≈ 40.1 µM) |  | 48 (≈ 128 µM) | 7.4 (≈ 19.8 µM) |  |
| COc1ccc(-c2coc3cc(O)cc(O)c3c2=O)cc1C=O |  | 37 (≈ 118 µM) |  | 36.3 (≈ 116 µM) |  |  |
| COc1cc2c(=O)c(-c3ccc4c(c3)OCO4)coc2c2c1OC(C)(C)CC2 |  | 74.7 (≈ 196 µM) |  | 37.9 (≈ 99.6 µM) | 40.3 (≈ 106 µM) |  |

| SMILES | MIC [1] [µg/mL] | MIC [2] [µg/mL] | MIC [3] [µg/mL] | MIC [4] [µg/mL] | MIC [5] [µg/mL] | MIC [6] [µg/mL] |
| --- | --- | --- | --- | --- | --- | --- |
| CCCC/C=C/CCCCCCCCCC1=C(O)C(=O)C=C(OC)C1=O |  | 40.7 (≈ 112 µM) |  | 50 (≈ 138 µM) |  |  |
| CCCC/C=C/CCCCCCCCCC1=C(O)C(=O)C(C)=C(O)C1=O |  | 41.3 (≈ 114 µM) |  | 40.9 (≈ 113 µM) |  |  |
| CCCC/C=C/CCCCCCCCCCCCCC1=C(C(C)=O)C(=O)C(C)=C(OC(C)=O)C1=O | 27.5 (≈ 56.5 µM) |  | 5 (≈ 10.3 µM) |  |  |  |
| CCCCCCCCCCCC1=C(C(C)=O)C(=O)C=C(OC(C)=O)C1=O | 50 (≈ 138 µM) |  | 42.5 (≈ 117 µM) |  |  |  |
| CCCCCCCCCCCC1=C(OC)C(=O)C=C(OC)C1=O | 20 (≈ 62 µM) |  | 10 (≈ 31 µM) |  |  |  |
| CCCCCCCCCCCCCCCC1=C(O)C(=O)C=C(O)C1=O | 105 (≈ 300 µM) |  | 107 (≈ 305 µM) |  |  |  |
| CCCCCCCCCCCC1=C(O)C(=O)C=C(OC)C1=O [5-O-METHYLEMBELIN] | 32.9 (≈ 107 µM) |  | 15 (≈ 48.6 µM) |  |  |  |
| CCCCCCCCCCCC1=C(O)C(=O)C=C(O)C1=O [EMBELIN] | 50 (≈ 170 µM) | 35.3 (≈ 120 µM) | 15 (≈ 51 µM) | 49 (≈ 166 µM) | 14.7 (≈ 49.9 µM) |  |
| Cc1cc(O)c2c(c1)C(=O)c1cc(O)cc(O)c1C2=O [EMODIN] |  | 51.7 (≈ 191 µM) |  | 50.3 (≈ 186 µM) |  |  |
| CC[C@@H](CO)NCCN[C@@H](CC)CO [ETHAMBUTOL] | 15 (≈ 73.4 µM) |  | 2.5 (≈ 12.2 µM) |  |  | 2.65 (≈ 13 µM) |
| NNC(=O)c1ccncc1 [ISONIAZID] | 2.7 (≈ 19.7 µM) |  | 0.8 (≈ 5.83 µM) |  |  | 0.6 (≈ 4.38 µM) |
| COc1ccc(-c2oc3cc(O)cc(O)c3c(=O)c2O)cc1 [KAEMPFERIDE] |  | 32.7 (≈ 109 µM) |  | 26 (≈ 86.6 µM) |  |  |
| CC(=O)c1c(C)cc2cccc(O)c2c1O [NEPODIN] |  | 40.3 (≈ 186 µM) |  | 84.7 (≈ 392 µM) |  |  |
| O=C1C[C@@H](c2ccccc2)Oc2cc(O)cc(O)c21 [PINOCEMBRIN] |  | 73 (≈ 285 µM) |  | 63.3 (≈ 247 µM) |  |  |
| CC1=CC(=O)c2c(O)cccc2C1=O [PLUMBAGIN] |  | 42.3 (≈ 225 µM) |  | 40.3 (≈ 214 µM) |  |  |
| COc1cc(O)c2c(=O)c(O)c(-c3ccc(O)cc3)oc2c1 [RHAMNOCITRIN] |  | 37.7 (≈ 126 µM) |  | 59.7 (≈ 199 µM) | 15.3 (≈ 51 µM) |  |
| CO[C@H]1/C=C/O[C@@]2(C)Oc3c(C)c(O)c4c(O)c(c(/C=N/N5CCN(C)CC5)c(O)c4c3C2=O)NC(=O)/C(C)=C\C=C\[C@H](C)[C@H](O)[C@@H](C)[C@@H](O)[C@@H](C)[C@H](OC(C)=O)[C@@H]1C [RIFAMPIN] | 30 (≈ 36.5 µM) |  | 7.5 (≈ 9.11 µM) |  |  | 45.7 (≈ 55.5 µM) |
| CCCCCCCCCCCCCC1=C(O)C(=O)C=C(O)C1=O [Rapanone] | 65 (≈ 202 µM) |  | 35 (≈ 109 µM) |  |  |  |
| COc1ccc(-c2oc3cc(O)c(OC)c(O)c3c(=O)c2OC)cc1 [SANTIN] |  | 59 (≈ 171 µM) |  | 51 (≈ 148 µM) |  |  |
| CN[C@@H]1[C@H](O[C@H]2[C@H](O[C@H]3[C@H](O)[C@@H](O)[C@H](N=C(N)N)[C@@H](O)[C@@H]3N=C(N)N)O[C@@H](C)[C@]2(O)C=O)O[C@@H](CO)[C@H](O)[C@H]1O [STREPTOMYCIN] | 2.5 (≈ 4.3 µM) |  | 3.3 (≈ 5.67 µM) |  |  | 4.95 (≈ 8.51 µM) |
| CCCCCCCCCCCCCC1=C(O)C(=O)C=C(OC)C1=O [Sorgoleone-364] | 70 (≈ 208 µM) |  | 60 (≈ 178 µM) |  |  |  |
